Values joined by “and” are separate entries in the source; they are usually repeats but may differ in a detail not shown here. Identical values can stand only once.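 Interpolation was linear, between the two tested concentrations surrounding the appropriate level; five concentrations were tested over 48 hours in 96-well plates. At the GI50, growth is halved.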 Active and inactive are the calls of the source. Rule as the data show it: active = GI50 up to about 1.1 µM and inactive = higher.
Legend:
Assay in all cases: NCI tumour cell line growth inhibition, 48 h
UO-31 = system: UO-31
M14 = system: M14
HCT-116 = system: HCT-116
SK-MEL-5 = system: SK-MEL-5
SK-OV-3 = system: SK-OV-3
HT-29 = system: HT-29
SW-620 = system: SW-620
OVCAR-5 = system: OVCAR-5
IGROV-1 = system: IGROV-1
HCC 2998 = system: HCC 2998
Hs-578T = system: Hs-578T
MDA-MB-435 = system: MDA-MB-435
MDA-N = system: MDA-N
Malme-3M = system: Malme-3M
ACHN = system: ACHN
HOP-92 = system: HOP-92
LOX IMVI = system: LOX IMVI
MOLT-4 = system: MOLT-4
HOP-62 = system: HOP-62
SK-MEL-2 = system: SK-MEL-2
EKVX = system: EKVX
A498 = system: A498
PC-3 = system: PC-3
COLO 205 = system: COLO 205
SF-539 = system: SF-539
NCI-H23 = system: NCI-H23
UACC-257 = system: UACC-257
RPMI-8226 = system: RPMI-8226
SN12C = system: SN12C
NCI-H460 = system: NCI-H460
OVCAR-8 = system: OVCAR-8
TK-10 = system: TK-10
786-0 = system: 786-0
SK-MEL-28 = system: SK-MEL-28
HCT-15 = system: HCT-15
HL-60 = system: HL-60
BT-549 = system: BT-549
A549 = system: A549
SNB-19 = system: SNB-19
UACC-62 = system: UACC-62
CAKI-1 = system: CAKI-1
OVCAR-4 = system: OVCAR-4
MCF7 = system: MCF7
MDA-MB-231 = system: MDA-MB-231
SF-268 = system: SF-268
SF-295 = system: SF-295
SR = system: SR
KM12 = system: KM12
K562 = system: K562
U-251 = system: U-251
NCI/ADR-RES = system: NCI/ADR-RES
NCI-H226 = system: NCI-H226
NCI-H522 = system: NCI-H522
OVCAR-3 = system: OVCAR-3

Measured: GI50

O=C(/C=C/c1ccccc1)c1cc(C(=O)/C=C/c2ccccc2)c(O)cc1O
inactive: UO-31 41.3 µM | M14 > 100 µM | HCT-116 60.1 µM | SK-MEL-5 69.3 µM | SK-OV-3 > 100 µM | HT-29 > 100 µM | SW-620 > 100 µM | OVCAR-5 > 100 µM | IGROV-1 > 100 µM | HCC 2998 88.3 µM | Hs-578T 26.4 µM | MDA-MB-435 > 100 µM | MDA-N > 100 µM | Malme-3M > 100 µM | ACHN 73.1 µM | HOP-92 > 100 µM | LOX IMVI > 100 µM | MOLT-4 > 100 µM | HOP-62 > 100 µM | SK-MEL-2 > 100 µM | EKVX 18.7 µM | A498 31.9 µM | PC-3 > 100 µM | COLO 205 > 100 µM | SF-539 47.3 µM | NCI-H23 > 100 µM | UACC-257 > 100 µM | RPMI-8226 65.6 µM | SN12C > 100 µM | NCI-H460 > 100 µM | OVCAR-8 > 100 µM | TK-10 > 100 µM | 786-0 > 100 µM | SK-MEL-28 40.5 µM | HL-60 > 100 µM | BT-549 > 100 µM | A549 > 100 µM | SNB-19 > 100 µM | UACC-62 49.8 µM | CAKI-1 > 100 µM | OVCAR-4 > 10 µM | MCF7 51.4 µM
> 100 µM: HCT-15

NS(=O)(=O)c1cc(S(N)(=O)=O)c(NC(=O)Nc2ccc(Cl)c(Cl)c2)c(Cl)c1Cl
inactive: MDA-MB-231 > 100 µM | UO-31 > 100 µM | SF-268 > 100 µM | M14 > 100 µM | HCT-116 > 100 µM | SK-MEL-5 > 100 µM | SF-295 > 100 µM | SR > 100 µM | SK-OV-3 > 100 µM | HT-29 > 100 µM | SW-620 > 100 µM | OVCAR-5 > 100 µM | IGROV-1 > 100 µM | HCC 2998 > 100 µM | Hs-578T > 100 µM | MDA-MB-435 > 100 µM | KM12 > 100 µM | MDA-N > 100 µM | ACHN > 100 µM | HOP-92 4.18 µM | LOX IMVI > 100 µM | MOLT-4 > 100 µM | SK-MEL-2 > 100 µM | EKVX > 100 µM | K562 > 100 µM | PC-3 > 100 µM | COLO 205 40.6 µM | U-251 > 100 µM | NCI-H23 > 100 µM | UACC-257 > 100 µM | RPMI-8226 > 100 µM | NCI/ADR-RES > 100 µM | SN12C > 100 µM | NCI-H460 > 100 µM | OVCAR-8 > 100 µM | TK-10 > 100 µM | 786-0 > 100 µM | SK-MEL-28 > 100 µM | NCI-H226 96.2 µM | NCI-H522 > 100 µM | BT-549 > 100 µM | A549 > 100 µM | OVCAR-3 > 100 µM | SNB-19 > 100 µM | UACC-62 > 100 µM | CAKI-1 > 100 µM | OVCAR-4 > 100 µM | MCF7 > 100 µM
> 100 µM: HCT-15

COc1cc2c3c(c4cc(OC)c(OC)cc4c2cc1OC)CN1CCC[C@H]1C3 [(S)-TYLOPHORINE]
active: MDA-MB-231 < 0.0109 µM | UO-31 39.9 nM and < 20.8 nM | HCT-116 < 10 nM and 17.9 nM | SK-OV-3 < 12.2 nM and 12.6 nM | OVCAR-5 < 12.1 nM and 16.6 nM | Hs-578T 0.404 µM | ACHN < 10 nM and 14.5 nM | LOX IMVI < 10 nM and 11.9 nM | A498 < 0.01 µM | UACC-257 14.3 nM and 26.6 nM | TK-10 < 16.7 nM and 19.4 nM | SK-MEL-28 < 13.7 nM and 9.06 nM | NCI-H226 0.0294 µM | NCI-H522 56.6 nM and < 40.6 nM | BT-549 22.5 nM and 39.5 nM | A549 < 10 nM and 13.2 nM | OVCAR-3 58.9 nM and 42.3 nM | SNB-19 < 10 nM and 9.35 nM | CAKI-1 < 16.3 nM and 25.8 nM | MCF7 0.0107 µM

From ChEMBL document CHEMBL1201862, “PubChem BioAssay data set” (2004)
